Source: ChEMBL document CHEMBL1143125, “DNA cleavage by novel copper (II) complex and the role of beta-cyclodextrin in promoting cleavage” (Bioorg Med Chem, 2008)

Key:
[1] = test system: Escherichia coli; test: Induction of Escherichia coli pUC19 DNA cleavage assessed as non-cleaved DNA level at 0.714 mM after 12 hrs
[2] = test system: DNA; test: Binding affinity to calf thymus DNA assessed by fluorescence quenching assay; format: nucleic-acid assay; details: Bos taurus

| SMILES | Activity [1] [%] | K [2] [L/mol] |
| --- | --- | --- |
| OC[C@H]1O[C@@H]2O[C@H]3[C@H](O)[C@@H](O)[C@@H](O[C@H]4[C@H](O)[C@@H](O)[C@@H](O[C@H]5[C@H](O)[C@@H](O)[C@@H](O[C@H]6[C@H](O)[C@@H](O)[C@@H](O[C@H]7[C@H](O)[C@@H](O)[C@@H](O[C@H]8[C@H](O)[C@@H](O)[C@@H](O[C@H]1[C@H](O)[C@H]2O)O[C@@H]8CO)O[C@@H]7CO)O[C@@H]6CO)O[C@@H]5CO)O[C@@H]4CO)O[C@@H]3CO | 6.3 |  |
| NC(CCC(=O)Nc1cccc2ccccc12)C(=O)N1CCNCCNCCNCC1 (stereo not drawn) | 7.4 | 30000 |
